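Cultured in 96-well plates, cells were exposed to test compound for 48 hours across five concentrations. GI50 is the concentration that inhibits growth by half. TGI is the concentration that stops growth completely.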
How the values were obtained:
Experiment in all cases: DTP human tumour cell line panel, 48 h
A549 NSCLC = test system: A549 NSCLC
HCT-15 colon = test system: HCT-15 colon
HS 578T breast = test system: HS 578T breast
MDA-MB-231 breast = test system: MDA-MB-231 breast
OVCAR-4 ovarian = test system: OVCAR-4 ovarian
SF-295 CNS = test system: SF-295 CNS
SK-OV-3 ovarian = test system: SK-OV-3 ovarian
SW-620 colon = test system: SW-620 colon

Compound | GI50 (A549 NSCLC) [µM] | TGI (A549 NSCLC) [µM] | GI50 (HCT-15 colon) [µM] | TGI (HCT-15 colon) [µM] | GI50 (HS 578T breast) [µM] | TGI (HS 578T breast) [µM] | GI50 (MDA-MB-231 breast) [µM] | TGI (MDA-MB-231 breast) [µM] | GI50 (OVCAR-4 ovarian) [µM] | TGI (OVCAR-4 ovarian) [µM] | GI50 (SF-295 CNS) [µM] | TGI (SF-295 CNS) [µM] | GI50 (SK-OV-3 ovarian) [µM] | TGI (SK-OV-3 ovarian) [µM] | GI50 (SW-620 colon) [µM] | TGI (SW-620 colon) [µM]
OC(c1cc(C(F)(F)F)nc2c(C(F)(F)F)cccc12)C1CCCCN1 (stereo not drawn) | 2.24 | 6.33 | 3.51 | 10.9 | 3.8 | 19.5 | 1.78 | 3.45 | 2.81 | 7.07 | 2.04 | 5.09 | 1.95 | 4.32 | 1.85 | 3.46
c1ccc(Nc2ncc(-c3ccccc3)o2)cc1 | > 25 | > 25 | 24.3 | > 25 | 11.5 | > 25 | > 25 | > 25 | > 21.1 | > 25 | > 25 | > 25 | > 25 | > 25 | > 25 | > 25
CCCCCCCCCCSC(=N)N (tested in a mixture with another compound) | 4.36 | 18 | 2.12 | 5.06 | 8.03 | 29.5 | 1.8 | 4.22 | 3.44 | 16 | 3.79 | 14.3 | 11.8 | 24.8 | 2.1 | 4.7
COc1ccc(Cn2c(Br)c3c(c2Br)-c2nc(N)sc2CC3)cc1 | 4.77 | 77 | 2.67 | 20.2 | 5.61 | > 100 | 5.97 | 26.8 |  |  | 3.07 | 10.4 | 4.01 | 20 | 3.1 | 11.4
Cc1cc(Nc2ccc(C)c(Cl)c2)n2nc(C(F)(F)F)nc2n1 |  |  | 23.6 | > 100 | 22.6 | 77.4 | 23.7 | > 100 | 25.8 | > 100 | 21.2 | 74 | 29.9 | 96.7 | 30.2 | > 100
C[C@@H]1CC[C@H]2C(C)(C)[C@H]3C[C@@]12CC[C@@]3(C)O |  | > 100 |  | > 100 |  | > 100 |  | > 100 |  | > 100 |  | > 100 |  | > 100 |  | > 100
C=C1C(=O)O[C@H]2[C@H]1CC/C(CNC(=O)c1cc3ccccc3[nH]1)=C\CC[C@@]1(C)O[C@@H]21 | 4.39 | 15.7 | 0.439 | 1.72 | 6.62 | 38.7 | 1.38 | 3.34 | 1.73 | 5.53 | 6.45 | 19.5 | 11.6 | 23.8 | 0.523 | 2.01
c1ccc(-c2n(Cc3ccc4ccccc4n3)cc[n+]2Cc2ccc3ccccc3c2)cc1 | 2.91 | 12.1 | 5.21 | 17.9 | 1.94 | 6.31 | 1.16 | 3.32 | 0.366 | 6.13 | 1.73 | 4.73 | 1.8 | 4.69 | 1.91 | 7.4
COc1cc2c(cc1OC)-c1cc(OC)c(OC)cc1C(CN(C)C)C2 (stereo not drawn) | > 10 | > 10 | > 10 | > 10 | 7.27 | > 10 | > 10 | > 10 | > 10 | > 10 | > 10 | > 10 | > 10 | > 10 | > 10 | > 10
COc1ccc2ncnc(Nc3ccc(OCc4ccccc4)cc3)c2c1 | 5.98 | > 25 | 5.61 | > 25 | 10.2 | > 25 | 4.6 | 11.1 | 7.38 | > 25 | 5.15 | > 18.7 | 3.41 | > 23.6 | 9.04 | > 25
CC(=O)OCc1ccc2c(c1)C(O)NC(=O)O2 (stereo not drawn) |  | > 100 |  | > 100 |  | > 100 |  | > 100 |  | > 100 |  | > 100 |  | > 100 |  | > 100
COC(=O)c1cc2oc(/C=C3/SC(=S)N(NC(C)=O)C3=O)cc2n1C | 28.3 | > 100 | 14.9 | 58.5 | 15.2 | 59.2 | 21.5 | 53.2 | 37.7 | > 100 | 18.2 | 65.5 |  |  | 7.51 | 25.5
NC(=S)N/N=C\c1nccc2c(C(F)(F)F)cccc12 | 0.293 | 3.26 | 0.315 | 19.2 | 1.36 | > 58.8 | 0.281 | 17.6 | 0.162 | 24.8 | 0.341 | 10.3 | 0.17 | 5.89 | 0.463 | 17.4
COc1c2ccccc2c(OC)c2[nH]c(=O)ccc12 | 2.43 | > 20.6 | 1.78 | 4.53 | 2.68 | 20.7 | 9.75 | > 89.8 | 11.1 | > 100 | 1.44 | 3.29 | 65.1 | > 100 | 4.2 | > 63.4
COC1=CC(=O)C(C2(OC(C)C)OC(=O)C(Cl)=C2Cl)=CC1=O (stereo not drawn) |  | > 100 |  | > 100 |  | > 100 |  | > 100 |  |  |  | > 100 |  | > 100 |  | > 100
NCCNCCNCCN | > 100 | > 100 | > 100 | > 100 | > 100 | > 100 | > 100 | > 100 | > 100 | > 100 | > 100 | > 100 | > 100 | > 100 | > 100 | > 100
Cc1ccc(NC2=C3CCCCC3OC2=O)cc1 (stereo not drawn) | > 100 | > 100 | > 100 | > 100 | > 100 | > 100 | 35.2 | > 100 | 43.2 | > 100 | 75 | > 100 | > 100 | > 100 | > 100 | > 100

Compound | GI50 (A549 NSCLC) [µM] | TGI (A549 NSCLC) [µM] | GI50 (HCT-15 colon) [µM] | TGI (HCT-15 colon) [µM] | GI50 (HS 578T breast) [µM] | TGI (HS 578T breast) [µM] | GI50 (MDA-MB-231 breast) [µM] | TGI (MDA-MB-231 breast) [µM] | GI50 (OVCAR-4 ovarian) [µM] | TGI (OVCAR-4 ovarian) [µM] | GI50 (SF-295 CNS) [µM] | TGI (SF-295 CNS) [µM] | GI50 (SK-OV-3 ovarian) [µM] | TGI (SK-OV-3 ovarian) [µM] | GI50 (SW-620 colon) [µM] | TGI (SW-620 colon) [µM]
O=C(Nc1cccc(C(F)(F)F)c1)Nc1cccc(C(F)(F)F)c1 | 0.531 | 8.21 | 0.464 | 3.41 | 2.25 | 12.5 | 1.47 | 3.29 | 0.679 | 13.7 | 0.323 | 1.57 | 1.89 | 6.34 | 0.798 | 6.88
CC(=C(c1ccc(OCCN2CCCCC2)cc1)c1ccc(OCCN2CCCCC2)cc1)c1ccc(Cl)cc1 | 0.457 | 0.914 | 0.34 | 0.685 | 0.458 | 1.04 | 0.425 | 0.806 | 0.46 | 0.893 | 0.449 | 0.868 | 0.428 | 0.806 | 0.408 | 0.794
COc1ccc(C(c2cc(OC)c(OC)c(OC)c2)n2cncn2)cc1O (stereo not drawn) | 0.969 | > 100 | 0.438 | > 100 | 0.548 | > 100 | 1.5 | > 100 | 3.02 | > 100 | 0.325 | > 100 | 0.402 | > 100 | 0.431 | > 100
O=C1NC(=NCc2ccccc2)S/C1=C\c1ccc2ncccc2c1 | 24.6 | > 25 | > 25 | > 25 | > 25 | > 25 | > 25 | > 25 | > 25 | > 25 | > 25 | > 25 | > 25 | > 25 | > 25 | > 25
COC(=O)[C@]12CC[C@@H](C)[C@H](C)[C@@H]1C1=CC[C@@H]3[C@@]4(C)C[C@@H](O)[C@H](O)[C@@](C)(CO)[C@@H]4[C@H](O)C[C@@]3(C)[C@]1(C)CC2 | 15.8 | 45.2 | 12.5 | 28.4 | 18.5 | 45.8 | 13 | 29.8 | 12.1 | 32.8 | 15 | 35.4 | 19.4 | 33.5 | 18.8 | 39.4
C=C(C)C(=O)O[C@@H]1C[C@@]2(C)O[C@@H]2C[C@H](O)/C(C)=C/[C@H]2OC(=O)C(=C)[C@@H]21 |  | > 100 |  | > 100 |  | > 100 |  | > 100 |  | 78.9 |  | > 100 |  | > 100 |  | 38.9
Nc1nc2[nH]cc(CCc3ccc(C(=O)N[C@@H](CCC(=O)O)C(=O)O)cc3)c2c(=O)[nH]1 | 0.587 | > 100 |  | > 100 |  | > 100 | > 100 | > 100 |  | > 100 | 0.606 | > 100 |  | > 100 |  | > 100
COc1cc(-c2nn(-c3cccc(NC(=O)c4ccccc4)c3)cc2-c2ccncc2)ccc1Cl | 0.496 | > 60.6 | 0.579 | > 100 | 0.87 | > 40.9 | 1.06 | > 36.9 | 1.11 | > 100 | 0.315 | 1.44 | 1.19 | > 100 | 0.451 | > 36.3
CC#Cc1ccc(-c2ccccc2)s1 |  | > 100 |  | > 100 |  | > 100 |  | > 100 |  | > 100 |  | > 100 |  |  |  | > 100
Fc1cc(-c2nnc3n2N=C(c2ccc(Cl)cc2)CS3)c(Cl)cc1Cl | 18.7 | 41.8 | 4.82 | 13.8 | 22.7 | 51.5 | 6.57 | 18.2 | 7.91 | 32.8 | 17 | 34.7 | 22.5 | 51.5 | 1.55 | 3
Cn1cc(-c2cc3c(N4CCN(c5ncc([C@@](C)(N)c6ccc(F)cc6)cn5)CC4)ncnn3c2)cn1 | 5.61 | > 100 | 3.62 | > 100 | 1.82 | > 100 | 4.77 | > 100 | 2.45 | > 100 | 3.56 | > 100 |  |  |  | 
O=[N+]([O-])c1cc([N+](=O)[O-])c(C(F)(F)F)cc1NN=C(c1ccc(O)cc1)c1ccc(O)cc1 | 2.98 | 14.5 | 2.84 | 11.7 |  |  | 3.11 | 9.41 | 3.25 | 19.2 | 1.57 | 3.81 | 4.25 | 14.6 | 3.44 | 12.3
CC(=O)[O-].CC(=O)[O-].O=C(N/N=C/c1cc(Cl)cc(Cl)c1O)c1ccncc1.[Cu+2] |  | > 100 |  | > 100 |  |  |  |  |  |  |  | > 100 |  | > 100 |  | > 100
CC(=O)Nc1cc2ccc(=O)oc2cc1Cl |  | > 100 |  | > 100 |  | > 100 |  | > 100 |  | > 100 |  | > 100 |  |  |  | > 100
C=C(C)C12OC1[C@@]1(C)C(=CC2=O)CCC(O)[C@@H]1C (stereo partly drawn) |  | 20.3 |  | > 100 |  | 9.26 |  | 7.11 |  | > 100 |  | > 100 |  |  |  | > 100
CC(C)(C)[Si](C)(C)OC1[C@@H](O[Si](C)(C)C(C)(C)C)[C@@H](CNC(=O)NC(=O)C(F)(F)F)O[C@H]1n1cnc2c(NC(=O)Nc3ccccc3)ncnc21 (stereo partly drawn) | 4.5 | 12.4 | 2.94 | 9.12 | 4.5 | 17.2 | 6.16 | 14.2 | 3.98 | 10.9 |  |  | 8.74 | 15.7 | 7.53 | 15.7

Source: PubChem BioAssay (NCI)
